How the values were obtained:
TBK1 = biological target: T1, TBK1 (Homo sapiens, UniProt Q9UHD2); experiment: TBK biochemical assay; details: 10 point 1:4 dose response, 30 uM top concentration, 90 min at 25° C., LabChip EZ Reader II; read-out: TBK1_IC50
T1 sequence (Q9UHD2 1-729): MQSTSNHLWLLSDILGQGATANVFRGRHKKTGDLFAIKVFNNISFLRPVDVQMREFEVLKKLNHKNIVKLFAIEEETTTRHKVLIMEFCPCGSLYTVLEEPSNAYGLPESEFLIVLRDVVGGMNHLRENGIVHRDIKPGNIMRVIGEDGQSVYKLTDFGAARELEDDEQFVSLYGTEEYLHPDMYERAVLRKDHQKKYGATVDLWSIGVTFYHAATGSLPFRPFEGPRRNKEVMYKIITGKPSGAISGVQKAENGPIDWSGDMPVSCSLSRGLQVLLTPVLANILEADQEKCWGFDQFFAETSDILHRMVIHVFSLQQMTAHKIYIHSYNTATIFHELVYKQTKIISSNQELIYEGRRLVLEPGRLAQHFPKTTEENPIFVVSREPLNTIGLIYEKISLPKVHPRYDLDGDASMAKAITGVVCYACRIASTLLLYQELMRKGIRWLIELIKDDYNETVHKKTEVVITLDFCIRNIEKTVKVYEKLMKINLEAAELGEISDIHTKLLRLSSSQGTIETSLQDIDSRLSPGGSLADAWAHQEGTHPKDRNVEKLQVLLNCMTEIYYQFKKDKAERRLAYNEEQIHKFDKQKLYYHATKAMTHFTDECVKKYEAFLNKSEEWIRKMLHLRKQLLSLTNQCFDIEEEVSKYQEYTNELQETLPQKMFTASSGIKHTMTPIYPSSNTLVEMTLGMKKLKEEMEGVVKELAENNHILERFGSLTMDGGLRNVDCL
Method in brief: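 Substrate and product were separated and quantified by microfluidic mobility-shift read (LabChip). 10 uM staurosporine served as the full-inhibition control, and the reference compound was tested from 1 uM final.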

IKKε = biological target: T2, IKKε (Homo sapiens, UniProt Q14164); experiment: IKKε biochemical assay; details: 10 point 1:4 dose response, 30 uM top concentration, 90 min at 25° C., LabChip EZ Reader II; read-out: IKKε_IC50
T2 sequence (Q14164 1-716): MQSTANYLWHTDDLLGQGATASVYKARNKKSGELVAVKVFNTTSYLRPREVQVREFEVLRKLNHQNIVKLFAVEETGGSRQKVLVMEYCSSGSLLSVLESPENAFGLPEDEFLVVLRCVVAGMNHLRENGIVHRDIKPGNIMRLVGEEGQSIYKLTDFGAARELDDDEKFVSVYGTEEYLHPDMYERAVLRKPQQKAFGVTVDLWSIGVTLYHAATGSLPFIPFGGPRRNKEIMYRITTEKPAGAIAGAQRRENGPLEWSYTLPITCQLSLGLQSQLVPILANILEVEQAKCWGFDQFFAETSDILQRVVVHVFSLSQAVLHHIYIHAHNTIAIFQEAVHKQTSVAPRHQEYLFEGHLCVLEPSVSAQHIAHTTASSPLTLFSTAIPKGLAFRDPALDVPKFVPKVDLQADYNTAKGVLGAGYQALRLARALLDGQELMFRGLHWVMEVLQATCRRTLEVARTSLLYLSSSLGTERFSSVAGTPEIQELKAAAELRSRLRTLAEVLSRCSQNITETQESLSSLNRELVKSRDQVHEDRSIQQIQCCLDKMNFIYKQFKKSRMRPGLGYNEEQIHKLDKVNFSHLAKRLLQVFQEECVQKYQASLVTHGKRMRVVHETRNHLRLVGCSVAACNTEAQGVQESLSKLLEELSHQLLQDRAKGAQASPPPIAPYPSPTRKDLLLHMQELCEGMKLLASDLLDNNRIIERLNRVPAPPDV
Method in brief: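 Compounds in 1% DMSO final were incubated with IKKε enzyme and substrate at 25° C. for 90 min, then stopped. Substrate and product peaks were resolved by LabChip EZ Reader II mobility-shift read-out. Staurosporine at 10 uM final served as the full-inhibition control.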

SMILES | IC50 (TBK1) [µM] | IC50 (IKKε) [µM]
COc1nc(Nc2nccc(-c3ccc(OC4CCN(C(=O)[C@H](C)O)CC4C)c(C#N)c3)n2)ccc1N1CCN(C2COC2)CC1 (stereo partly drawn) [Example 271, 2-[1-((S)-2-Hydroxy-propionyl)-3-methyl-piperidin-4-yloxy]-5-{2-[6-methoxy-5-(4-oxetan-3-yl-piperazin-1-yl)-pyridin-2-ylamino]-pyrimidin-4-yl}-benzonitrile] | < 0.1 | < 0.1
COc1nc(Nc2nccc(-c3ccc(OC4CCN(C(=O)[C@@H](O)CO)CC4C)c(C#N)c3)n2)ccc1N1CCN(C2COC2)CC1 (stereo partly drawn) [Example 272, 2-[1-((S)-2,3-Dihydroxy-propionyl)-3-methyl-piperidin-4-yloxy]-5-{2-[6-methoxy-5-(4-oxetan-3-yl-piperazin-1-yl)-pyridin-2-ylamino]-pyrimidin-4-yl}-benzonitrile] | < 0.1 | < 0.1
Cc1nc(C(=O)N2CCC(Oc3ccc(-c4ccnc(Nc5ccc(N6CCN(C7COC7)CC6)cc5)n4)cc3C#N)CC2)n[nH]1 [Example 273, 2-[[1-(5-methyl-1H-1,2,4-triazole-3-carbonyl)piperidin-4-yl]oxy]-5-[2-([4-[4-(oxetan-3-yl)piperazin-1-yl]phenyl]amino)pyrimidin-4-yl]benzonitrile] | < 0.1 | < 0.1
Cc1nc(C(=O)N2CCC(Oc3ccc(-c4ccnc(Nc5ccc(N6CCN(C7COC7)CC6)cc5)n4)cc3C#N)CC2)c[nH]1 [Example 274, 2-[[1-(2-methyl-1H-imidazole-4-carbonyl)piperidin-4-yl]oxy]-5-[2-([4-[4-(oxetan-3-yl)piperazin-1-yl]phenyl]amino)pyrimidin-4-yl]benzonitrile] | < 0.1 | < 0.1
COc1nc(Nc2nccc(-c3ccc(OC4CCN(C(=O)[C@H](C)O)CC4(F)F)c(C#N)c3)n2)ccc1N1CCOCC1 (stereo partly drawn) [Example 275, 2-([3,3-difluoro-1-[(2S)-2-hydroxypropanoyl]piperidin-4-yl]oxy)-5-(2-[[6-methoxy-5-(morpholin-4-yl)pyridin-2-yl]amino]pyrimidin-4-yl)benzonitrile] | < 0.1 | < 0.1
N#Cc1cc(-c2ccnc(Nc3cccc(C4CCN(C5COC5)CC4)c3)n2)ccc1OC1CCN(C(=O)[C@@H](O)CO)CC1(F)F (stereo partly drawn) [Example 276, 2-[1-((S)-2,3-Dihydroxy-propionyl)-3,3-difluoro-piperidin-4-yloxy]-5-{2-[3-(l-oxetan-3-yl-piperidin-4-yl)-phenylamino]-pyrimidin-4-yl}-benzonitrile] | < 0.1 | < 0.1
C[C@H](O)C(=O)N1CC(COc2ccc(-c3ccnc(Nc4ccc(N5CCN(C6COC6)CC5)cc4)n3)cc2C#N)C1 [Example 277, 2-([1-[(2S)-2-hydroxypropanoyl]azetidin-3-yl]methoxy)-5-[2-([4-[4-(oxetan-3-yl)piperazin-1-yl]phenyl]amino)pyrimidin-4-yl]benzonitrile] | < 0.1 | < 0.1
C[C@@H](O)C(=O)N1CC(COc2ccc(-c3ccnc(Nc4ccc(N5CCN(C6COC6)CC5)cc4)n3)cc2C#N)C1 [Example 278, 2-([1-[(2R)-2-hydroxypropanoyl]azetidin-3-yl]methoxy)-5-[2-([4-[4-(oxetan-3-yl)piperazin-1-yl]phenyl]amino)pyrimidin-4-yl]benzonitrile] | 0.1 to 1 | 0.1 to 1
COc1nc(Nc2nccc(-c3ccc(OCC4CN(C(=O)[C@H](C)O)C4)c(C#N)c3)n2)ccc1N1CCN(C2COC2)CC1 [Example 279, 2-([1-[(2S)-2-hydroxypropanoyl]azetidin-3-yl]methoxy)-5-[2-([6-methoxy-5-[4-(oxetan-3-yl)piperazin-1-yl]pyridin-2-yl]amino)pyrimidin-4-yl]benzonitrile] | < 0.1 | 0.1 to 1
COc1nc(Nc2nccc(-c3ccc(OCC4CN(C(=O)[C@@H](C)O)C4)c(C#N)c3)n2)ccc1N1CCN(C2COC2)CC1 [Example 280, 2-([1-[(2R)-2-hydroxypropanoyl]azetidin-3-yl]methoxy)-5-[2-([6-methoxy-5-[4-(oxetan-3-yl)piperazin-1-yl]pyridin-2-yl]amino)pyrimidin-4-yl]benzonitrile] | 0.1 to 1 | 0.1 to 1
COc1nc(Nc2ncc(C)c(-c3ccc(OC4CCN(C(=O)[C@H](C)O)CC4(F)F)c(C#N)c3)n2)ccc1N1CCN(C2COC2)CC1 (stereo partly drawn) [Example 283, 2-([33-difluoro-1-[(2S)-2-hydroxypropanoyl]piperidin-4-yl]oxy)-5-[2-([6-methoxy-5-[4-(oxetan-3-yl)piperazin-1-yl]pyridin-2-yl]amino)-5-methylpyrimidin-4-yl]benzonitrile] | < 0.1 | < 0.1
COc1nc(Nc2ncc(C)c(-c3ccc(O[C@H]4CCN(C(=O)[C@H](C)O)CC4(F)F)c(C#N)c3)n2)ccc1N1CCN(C2COC2)CC1 [Example 284, 2-[[(4S)-3,3-difluoro-1-[(2S)-2-hydroxypropanoyl]piperidin-4-yl]oxy]-5-[2-([6-methoxy-5-[4-(oxetan-3-yl)piperazin-1-yl]pyridin-2-yl]amino)-5-methylpyrimidin-4-yl]benzonitrile] | < 0.1 | < 0.1
COc1nc(Nc2ncc(C)c(-c3ccc(O[C@@H]4CCN(C(=O)[C@H](C)O)CC4(F)F)c(C#N)c3)n2)ccc1N1CCN(C2COC2)CC1 [Example 285, 2-[[(4R)-3,3-difluoro-1-[(2S)-2-hydroxypropanoyl]piperidin-4-yl]oxy]-5-[2-([6-methoxy-5-[4-(oxetan-3-yl)piperazin-1-yl]pyridin-2-yl]amino)-5-methylpyrimidin-4-yl]benzonitrile] | 0.1 to 1 | 0.1 to 1
COc1nc(Nc2ncc(C)c(-c3ccc(OC4CCN(C(=O)[C@@H](C)O)CC4(F)F)c(C#N)c3)n2)ccc1N1CCN(C2COC2)CC1 (stereo partly drawn) [Example 286, 2-([33-difluoro-1-[(2R)-2-hydroxypropanoyl]piperidin-4-yl]oxy)-5-[2-([6-methoxy-5-[4-(oxetan-3-yl)piperazin-1-yl]pyridin-2-yl]amino)-5-methylpyrimidin-4-yl]benzonitrile] | < 0.1 | 0.1 to 1
COc1nc(Nc2ncc(F)c(-c3ccc(OC4CCN(C(=O)[C@H](C)O)CC4(F)F)c(C#N)c3)n2)ccc1N1CCN(C2COC2)CC1 (stereo partly drawn) [Example 287, 2-([3,3-difluoro-1-[(2S)-2-hydroxypropanoyl]piperidin-4-yl]oxy)-5-[5-fluoro-2-([6-methoxy-5-[4-(oxetan-3-yl)piperazin-1-yl]pyridin-2-yl]amino)pyrimidin-4-yl]benzonitrile] | < 0.1 | < 0.1
COc1nc(Nc2ncc(F)c(-c3ccc(O[C@H]4CCN(C(=O)[C@H](C)O)CC4(F)F)c(C#N)c3)n2)ccc1N1CCN(C2COC2)CC1 [Example 288, 2-[[(4S)-33-difluoro-1-[(2S)-2-hydroxypropanoyl]piperidin-4-yl]oxy]-5-[5-fluoro-2-([6-methoxy-5-[4-(oxetan-3-yl)piperazin-1-yl]pyridin-2-yl]amino)pyrimidin-4-yl]benzonitrile] | < 0.1 | < 0.1
COc1nc(Nc2ncc(F)c(-c3ccc(O[C@@H]4CCN(C(=O)[C@H](C)O)CC4(F)F)c(C#N)c3)n2)ccc1N1CCN(C2COC2)CC1 [Example 289, 2-[[(4R)-3,3-difluoro-1-[(2S)-2-hydroxypropanoyl]piperidin-4-yl]oxy]-5-[5-fluoro-2-([6-methoxy-5-[4-(oxetan-3-yl)piperazin-1-yl]pyridin-2-yl]amino)pyrimidin-4-yl]benzonitrile] | < 0.1 | < 0.1

Source: patent US20230019491A1, “PYRIMIDINE TBK/IKKe INHIBITOR COMPOUNDS AND USES THEREOF” (Merck Patent GmbH, priority 2017, published 2023)
